From ChEMBL document CHEMBL1201862, “PubChem BioAssay data set” (2004)
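Dose response: 5 concentrations. Exposure: 48 h. Format: 96-well plates. Endpoint: linear interpolation; highest concentration if not reached. Abbreviation: GI50, concentration required for 50% inhibition of growth.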 The source made the active and inactive calls. Cut-off read from the data, not from the text of the source: active = GI50 up to about 1.1 µM and inactive = higher.

Tests used:
Assay in all cases: NCI anticancer screen, dose series, 48 h
[1] = test system: CCRF-CEM
[2] = test system: UACC-257
[3] = test system: EKVX
[4] = test system: M19-MEL
[5] = test system: COLO 205
[6] = test system: SK-MEL-5
[7] = test system: SR
[8] = test system: RXF 393
[9] = test system: KM-20L2
[10] = test system: XF498
[11] = test system: U-251
[12] = test system: HOP-62
[13] = test system: SW-620
[14] = test system: KM12
[15] = test system: IGROV-1
[16] = test system: A498
[17] = test system: A549
[18] = test system: HT-29
[19] = test system: OVCAR-5
[20] = test system: OVCAR-3
[21] = test system: HL-60
[22] = test system: DMS-114
[23] = test system: RPMI-8226
[24] = test system: NCI-H23
[25] = test system: ACHN
[26] = test system: SK-MEL-2
[27] = test system: SF-539
[28] = test system: HOP-92
[29] = test system: SK-OV-3
[30] = test system: M14
[31] = test system: HCC 2998
[32] = test system: SNB-78
[33] = test system: SNB-19
[34] = test system: SF-268
[35] = test system: NCI-H226
[36] = test system: SF-295
[37] = test system: Malme-3M
[38] = test system: SNB-75
[39] = test system: LOX IMVI
[40] = test system: OVCAR-8
[41] = test system: DLD-1
[42] = test system: UACC-62
[43] = test system: HCT-15
[44] = test system: UO-31
[45] = test system: SK-MEL-28
[46] = test system: HCT-116
[47] = test system: K562
[48] = test system: NCI-H522
[49] = test system: DMS-273
[50] = test system: TK-10
[51] = test system: SN12C
[52] = test system: MOLT-4
[53] = test system: 786-0
[54] = test system: HOP-18
[55] = test system: OVCAR-4
[56] = test system: NCI-H460
[57] = test system: LXFL 529
[58] = test system: CAKI-1

COc1ccc2c(c1)C(=O)c1ccc(OC)cc1C2=S
GI50 [1]: 25.5 µM (inactive)
GI50 [2]: > 100 µM (inactive)
GI50 [3]: > 100 µM (inactive)
GI50 [4]: > 100 µM (inactive)
GI50 [5]: > 100 µM (inactive)
GI50 [6]: > 100 µM (inactive)
GI50 [7]: > 100 µM (inactive)
GI50 [8]: > 100 µM (inactive)
GI50 [9]: > 100 µM (inactive)
GI50 [10]: 85.3 µM (inactive)
GI50 [11]: 24.4 µM (inactive)
GI50 [12]: > 100 µM (inactive)
GI50 [13]: > 100 µM (inactive)
GI50 [14]: > 100 µM (inactive)
GI50 [15]: > 100 µM (inactive)
GI50 [16]: > 100 µM (inactive)
GI50 [17]: > 100 µM (inactive)
GI50 [18]: > 100 µM (inactive)
GI50 [19]: > 100 µM (inactive)
GI50 [20]: > 100 µM (inactive)
GI50 [21]: 40.1 µM (inactive)
GI50 [22]: > 100 µM (inactive)
GI50 [23]: > 100 µM (inactive)
GI50 [24]: > 100 µM (inactive)
GI50 [25]: > 100 µM (inactive)
GI50 [26]: > 100 µM (inactive)
GI50 [27]: > 100 µM (inactive)
GI50 [28]: > 100 µM (inactive)
GI50 [29]: > 100 µM (inactive)
GI50 [30]: > 100 µM (inactive)
GI50 [31]: > 100 µM (inactive)
GI50 [32]: 30.7 µM (inactive)
GI50 [33]: > 100 µM (inactive)
GI50 [34]: 81.5 µM (inactive)
GI50 [35]: > 100 µM (inactive)
GI50 [36]: > 100 µM (inactive)
GI50 [37]: > 100 µM (inactive)
GI50 [38]: 30.3 µM (inactive)
GI50 [39]: > 100 µM (inactive)
GI50 [40]: > 100 µM (inactive)
GI50 [41]: 55.5 µM (inactive)
GI50 [42]: 49.1 µM (inactive)
GI50 [43]: > 100 µM
GI50 [44]: > 100 µM (inactive)
GI50 [45]: > 100 µM (inactive)
GI50 [46]: > 100 µM (inactive)
GI50 [47]: > 100 µM (inactive)
GI50 [48]: > 100 µM (inactive)
GI50 [49]: > 100 µM (inactive)
GI50 [50]: > 100 µM (inactive)
GI50 [51]: > 100 µM (inactive)
GI50 [52]: > 100 µM (inactive)
GI50 [53]: > 100 µM (inactive)
GI50 [54]: > 100 µM (inactive)

CC(=O)O[C@H]1CCC2[C@@H]3CCC4=C(O)c5nocc5C[C@]4(C)C3CC[C@@]21C (stereo not given in full)
GI50 [55]: > 100 µM (inactive)
GI50 [1]: > 100 µM (inactive)
GI50 [2]: > 100 µM (inactive)
GI50 [56]: > 100 µM (inactive)
GI50 [3]: > 100 µM (inactive)
GI50 [57]: > 100 µM (inactive)
GI50 [4]: > 100 µM (inactive)
GI50 [5]: > 100 µM (inactive)
GI50 [6]: > 100 µM (inactive)
GI50 [8]: > 100 µM (inactive)
GI50 [9]: > 100 µM (inactive)
GI50 [10]: > 100 µM (inactive)
GI50 [58]: > 100 µM (inactive)
GI50 [11]: > 100 µM (inactive)
GI50 [12]: > 100 µM (inactive)
GI50 [13]: > 100 µM (inactive)
GI50 [14]: > 100 µM (inactive)
GI50 [15]: > 100 µM (inactive)
GI50 [16]: > 100 µM (inactive)
GI50 [17]: > 100 µM (inactive)
GI50 [18]: > 100 µM (inactive)
GI50 [19]: > 100 µM (inactive)
GI50 [20]: > 100 µM (inactive)
GI50 [22]: > 100 µM (inactive)
GI50 [23]: > 100 µM (inactive)
GI50 [24]: > 100 µM (inactive)
GI50 [25]: > 100 µM (inactive)
GI50 [26]: > 100 µM (inactive)
GI50 [27]: > 100 µM (inactive)
GI50 [28]: > 100 µM (inactive)
GI50 [29]: > 100 µM (inactive)
GI50 [30]: > 100 µM (inactive)
GI50 [32]: > 100 µM (inactive)
GI50 [33]: > 100 µM (inactive)
GI50 [34]: > 100 µM (inactive)
GI50 [35]: > 100 µM (inactive)
GI50 [36]: > 100 µM (inactive)
GI50 [37]: > 100 µM (inactive)
GI50 [38]: > 100 µM (inactive)
GI50 [39]: > 100 µM (inactive)
GI50 [40]: > 100 µM (inactive)
GI50 [42]: > 100 µM (inactive)
GI50 [43]: > 100 µM
GI50 [44]: > 100 µM (inactive)
GI50 [45]: > 100 µM (inactive)
GI50 [46]: > 100 µM (inactive)
GI50 [47]: > 100 µM (inactive)
GI50 [48]: > 100 µM (inactive)
GI50 [49]: > 100 µM (inactive)
GI50 [50]: > 100 µM (inactive)
GI50 [51]: > 100 µM (inactive)
GI50 [52]: > 100 µM (inactive)
GI50 [53]: > 100 µM (inactive)
GI50 [54]: > 100 µM (inactive)

O=C(O)c1ccccc1NS(=O)(=O)c1ccc(Cl)cc1
GI50 [55]: > 100 µM (inactive)
GI50 [1]: > 100 µM (inactive)
GI50 [2]: > 100 µM (inactive)
GI50 [56]: > 100 µM (inactive)
GI50 [3]: > 100 µM (inactive)
GI50 [57]: > 100 µM (inactive)
GI50 [4]: > 100 µM (inactive)
GI50 [5]: > 100 µM (inactive)
GI50 [6]: > 100 µM (inactive)
GI50 [8]: > 100 µM (inactive)
GI50 [9]: > 100 µM (inactive)
GI50 [10]: > 100 µM (inactive)
GI50 [58]: > 100 µM (inactive)
GI50 [11]: > 100 µM (inactive)
GI50 [12]: > 100 µM (inactive)
GI50 [13]: > 100 µM (inactive)
GI50 [15]: > 100 µM (inactive)
GI50 [17]: > 100 µM (inactive)
GI50 [18]: > 100 µM (inactive)
GI50 [19]: > 100 µM (inactive)
GI50 [22]: > 100 µM (inactive)
GI50 [23]: > 100 µM (inactive)
GI50 [24]: > 100 µM (inactive)
GI50 [25]: > 100 µM (inactive)
GI50 [26]: > 100 µM (inactive)
GI50 [27]: > 100 µM (inactive)
GI50 [28]: 19 µM (inactive)
GI50 [29]: > 100 µM (inactive)
GI50 [30]: > 100 µM (inactive)
GI50 [31]: > 100 µM (inactive)
GI50 [32]: > 100 µM (inactive)
GI50 [33]: > 100 µM (inactive)
GI50 [34]: > 100 µM (inactive)
GI50 [35]: > 100 µM (inactive)
GI50 [37]: > 100 µM (inactive)
GI50 [38]: > 100 µM (inactive)
GI50 [39]: > 100 µM (inactive)
GI50 [40]: > 100 µM (inactive)
GI50 [41]: > 100 µM (inactive)
GI50 [42]: > 100 µM (inactive)
GI50 [43]: > 100 µM
GI50 [44]: > 100 µM (inactive)
GI50 [45]: > 100 µM (inactive)
GI50 [46]: > 100 µM (inactive)
GI50 [47]: > 100 µM (inactive)
GI50 [48]: 54 µM (inactive)
GI50 [49]: > 100 µM (inactive)
GI50 [50]: > 100 µM (inactive)
GI50 [51]: > 100 µM (inactive)
GI50 [52]: > 100 µM (inactive)
GI50 [53]: > 100 µM (inactive)
GI50 [54]: > 100 µM (inactive)
